Here are results for four compounds from US20080227798A1, “POLYMORPHS OF SUCCINATE SALT OF 2-[6-(3-AMINO-PIPERIDIN-1-YL)-3-METHYL-2,4-DIOXO-3,4-DIHYDRO-2H-PYRIMIDIN-1-YLMETHY]-4-FLUOR-BENZONITRILE AND METHODS OF USE THEREFOR” (priority 2006, published 2008).

Entries after “also recorded” stand apart in the source; their conditions may differ.

What all share (assay type): physicochemical
A short description of data set [1]: Vapor stress of amorphous solid. The procedure:
Amorphous Compound I was placed in acetone, ethanol, and water vapor chambers for up to eight days. The solids were collected and analyzed by XRPD for form identification.
Solids of Amorphous Form of Compound I were stressed in acetone and ethanol vapor stress chambers for 4 days. Other aliquots of the solids were stressed in a water vapor chamber for 4 days and 8 days. The remaining solids were analyzed by XRPD.

Data set [2] in a line: Approximate solubility of Compound I in different solvents. The note with it: for solubility: thermodynamic from solid, ambient temperature, approximate. The procedure:
Compound I prepared by the method described in Example 1 was used for the solubility study. Solvents and other reagents were of ACS or HPLC grade and were used as received.
A weighed sample (typically about 20-25 mg) of Compound I was treated at ambient temperature with aliquots (typically ≧50 μL) of the test solvent with sonication between additions. Solvents were either reagent or HPLC grade. Solubility was estimated from the total volume of solvent used to obtain a clear solution, as determined by visual inspection. Solubility is expressed as “less than” when dissolution was not observed. If dissolution occurred after the last aliquot was added then solubility is expressed as “greater than or equal to” (≧). The actual solubilities may be greater than determined, due to over addition of solvent (large aliquots) or slow dissolution rates. Approximate solubilities of Compound I are summarized in Table A. The solubility values have been rounded to the nearest whole number and are reported to the nearest mg/mL.

A short description of data set [3]: Relative humidity stressing experiments. Conditions: conditions not given. An excerpt:
Samples of Compound I were placed uncovered in approximately 58%, 88%, and 97% relative humidity jars. The samples were stored in the jars for approximately 8 days. The solids were collected and analyzed by XRPD for form identification. […] An aliquot of a mixture of Form A+B was stressed at 88% relative humidity for 23 days. Amorphous Form was stressed at 58% and 88% relative humidity for 23 days.

A short description of data set [4]: Moisture sorption/desorption analysis. The procedure: Moisture sorption/desorption data were collected on a VTI SGA-100 Vapor Sorption Analyzer. Sorption and desorption data were collected over a range of 5% to 95% relative humidity (RH) at 10% RH intervals under a nitrogen purge. Samples were not dried prior to analysis. Equilibrium criteria used for analysis were less than 0.0100% weight change in 5 minutes, with a maximum equilibration time of 3 hours if the weight criterion was not met. Data were not corrected for the initial moisture content of the samples. NaCl and PVP were used as calibration standards. Moisture sorption and desorption study was conducted on a sample of Form A+B. The sample was prepared by crashed cooling crystallization (Example 3, section A.6) of the polymorphic forms from a ethanol:water (95:5) solution of Compound I. The moisture sorption and desorption study was conducted according to the procedures outlined in Example 3, section B.10. The data collected is plotted in FIG. 13 and summarized in Table L. Moisture sorption and desorption study was conducted on a sample of Form E. The sample was prepared by solvent/antisolvent crystallization (Example 3, section A.7) by the addition of acetonitrile to Compound I in water. The moisture sorption and desorption study was conducted according to the procedures outlined in Example 3, section B.10. The data collected is plotted in FIG. 23 and summarized in Table M. Moisture sorption and desorption study was conducted on a sample of Amorphous Form. The sample was prepared by lyophilolization of a solution of Compound I in water (Example 3, section A.9). The moisture sorption and desorption study was conducted according to the procedures outlined in Example 3, section B.10.

On to `Cn1c(=O)cc(N2CCC[C@@H](N)C2)n(Cc2ccccc2C#N)c1=O.O=C(O)CCC(=O)O` [Amorphous Solid of Compound I], for which the “Color/morphology after vapor stress” value in data set [1] (Acetone vapor, 4 days) is given as “off white, irregular”; in data set [1] (EtOH vapor, 4 days), “off white, irregular”; in data set [1] (Water vapor, 4 days), “off white, irregular,”; in data set [1] (Water vapor, 8 days), “white, irregular,”. The “Form after vapor stress (XRPD)” value in data set [1] (Water vapor, 4 days) is “A + D”; in data set [1] (Water vapor, 8 days), “low”.
`Cn1c(=O)cc(N2CCC[C@@H](N)C2)n(Cc2cc(F)ccc2C#N)c1=O` [Compound I, 2-[6-(3-amino-piperidin-1-yl)-3-methyl-2,4-dioxo-3,4-dihydro-2H-pyrimidin-1-ylmethyl]-4-fluoro-benzonitrile succinate]: the solubility in data set [2] (2-propanol:water (88:12), organic solvent or mixture, IPA:H2O (88:12)) is 11000 µg/mL; in data set [2] (acetonitrile:water (85:15), organic solvent or mixture, ACN:H2O (85:15)), 101000 µg/mL; in data set [2] (diethyl ether, organic solvent or mixture, di-Ethyl ether), less than 1000 µg/mL; in data set [2] (ethanol:water (95:5), organic solvent or mixture, EtOH:H2O (95:5)), 5000 µg/mL; in data set [2] (organic solvent or mixture, 1,4-Dioxane), less than 1000 µg/mL; in data set [2] (organic solvent or mixture, 2-Propanol (IPA)), less than 1000 µg/mL. Besides, the solubility in data set [2] (organic solvent or mixture, Acetone) was 2000 µg/mL; in data set [2] (organic solvent or mixture, Acetonitrile (ACN)) it was less than 1000 µg/mL; in data set [2] (organic solvent or mixture, Dichloromethane (DCM)) it was less than 1000 µg/mL; in data set [2] (organic solvent or mixture, Dimethyl Formamide (DMF)), 68000 µg/mL; in data set [2] (organic solvent or mixture, Ethanol (EtOH)), 2000 µg/mL; in data set [2] (organic solvent or mixture, Ethyl Acetate (EtOAc)), less than 1000 µg/mL. Also, the solubility in data set [2] (organic solvent or mixture, Hexanes) was less than 1000 µg/mL; in data set [2] (organic solvent or mixture, Methanol (MeOH)) it was 20000 µg/mL; in data set [2] (organic solvent or mixture, Tetrahydrofuran (THF)), less than 1000 µg/mL; in data set [2] (organic solvent or mixture, Toluene), less than 1000 µg/mL; in data set [2] (organic solvent or mixture, Trifluoroethanol (TFE)) it was more than 200000 µg/mL; in data set [2] (Water (H2O)), 51000 µg/mL. In addition, in data set [2] (most solvents, except DMF, methanol, TFE, water and water:solvent mixtures), the “Solubility (in words)” value was “Poor solubility”.
Turning to `Cn1c(=O)cc(N2CCC[C@@H](N)C2)n(Cc2cc(F)ccc2C#N)c1=O.O=C(O)CCC(=O)O` [Form B], the “form change in additional relative humidity stressing studies” value in data set [3] is “converted to Form A”.
`Cn1c(=O)cc(N2CCC[C@@H](N)C2)n(Cc2cc(F)ccc2C#N)c1=O.O=C(O)CCC(=O)O` [Form E]: the Weight % chg in data set [4] (Samp RH 5.03%, 24.77° C., elapsed 730.6 min (desorption)) is −1.322%; in data set [4] (Samp RH 5.23%, 24.77° C., elapsed 138.3 min), −1.268%; in data set [4] (Samp RH 14.89%, 24.78° C., elapsed 154.5 min (sorption)), −1.187%; in data set [4] (Samp RH 14.94%, 24.79° C., elapsed 557.2 min (desorption)), −0.102%; in data set [4] (Samp RH 24.87%, 24.78° C., elapsed 170.5 min (sorption)) it was −1.074%; in data set [4] (Samp RH 25.02%, 24.79° C., elapsed 543.5 min (desorption)), −0.013%. Moreover, the Weight % chg in data set [4] (Samp RH 34.83%, 24.78° C., elapsed 184.5 min (sorption)) is −0.947%; in data set [4] (Samp RH 35.13%, 24.79° C., elapsed 526.0 min (desorption)), 0.112%; in data set [4] (Samp RH 35.22%, 24.77° C., elapsed 0.1 min (start)), 0.000%; in data set [4] (Samp RH 44.87%, 24.78° C., elapsed 203.4 min (sorption)), −0.755%; in data set [4] (Samp RH 45.03%, 24.78° C., elapsed 512.2 min (desorption)), 0.236%; in data set [4] (Samp RH 55.04%, 24.79° C., elapsed 253.5 min (sorption)) it was −0.223%. Further, the Weight % chg is 0.398% in data set [4] (Samp RH 55.05%, 24.78° C., elapsed 499.6 min (desorption)); 0.325% in data set [4] (Samp RH 65.05%, 24.78° C., elapsed 281.1 min (sorption)); 0.616% in data set [4] (Samp RH 65.16%, 24.78° C., elapsed 487.4 min (desorption)); 0.608% in data set [4] (Samp RH 74.87%, 24.78° C., elapsed 301.2 min (sorption)); 0.949% in data set [4] (Samp RH 75.25%, 24.78° C., elapsed 471.9 min (desorption)); 1.410% in data set [4] (Samp RH 84.67%, 24.79° C., elapsed 322.2 min (sorption)). The Weight % chg is on record as 1.632% in data set [4] (Samp RH 85.18%, 24.77° C., elapsed 452.4 min (desorption)) and 4.216% in data set [4] (Samp RH 94.73%, 24.78° C., elapsed 415.8 min (sorption)). The “weight loss on equilibration at 5% relative humidity” value in data set [4] (equilibration at 5% RH) turned out to be 1.3%. In addition, in data set [4] (post moisture sorption/desorption), the “form by XRPD of the material remaining after the moisture sorption/desorption analysis” value is “a mixture of Form A and Form E; also recorded: A + small quantity of E”.

By solubility is commonly meant the dissolved amount per volume that the medium holds.
